These results are taken from patent US7998970B2, “Use of finasteride, dutasteride and related compounds for the prevention or treatment of neurologically-associated disorders” (ProteoSys AG, priority 2004, dated 2011).

For experiment [1], the system named is neurons derived from D3 embryonic stem (ES) cells. Description: Chemical ischemia-induced neuronal death and neuroprotection, cell culture model. Format: cell-based, mouse. To be noted: for EC50: Mus musculus, Neuron, read-out: EC50 of neuroprotective effect, chemical ischemia; for neuroprotective effect compared between compounds: each 1 μM, FIG. 3. As to the method: (§1) For all experiments, D3 embryonic stem (ES) cells derived from 129/sv mice [Okabe et al., 1996] were cultivated for 12 days, with passages on days 2, 4, 7 and 9 as described previously [Sommer et al., 2004]. Insult conditions: Cells (24-well plates) were pre-incubated with or without 20 nM EPO (neuroprotective agent, positive control) in fresh medium for 24 hours at 37° C. Cells were rinsed once with low K^+ solution (140 mM NaCl, 4.7 mM KCl, 1.2 mM KH2PO4, 2.5 mM CaCl2, 1.2 mM MgSO4, 11 mM glucose, 15 mM Hepes-NaOH, pH 7.35). Cells (either with or without EPO pre-incubation) were incubated for up to 45 min (37° C.) with either low K^+ solution or with glucose-free low K^+ solution supplemented with 1 mM KCN chemical ischemia solution [Kume et al., 2002, Schrattenholz et al., 2005]. This insult relates to ischemic conditions in stroke. In addition similar cellular insults were established using glutamatergic agonists to induce excitotoxicity (Sommer et al., 2004) and respective neuroprotection related to stroke and epilepsy; and β-amyloid induced toxicity (incubation of neurons with 10 μM β-amyloid1-40 for 10 min, resulting in Ca-influx and neuronal death) and respective rescue related to Alzheimer's disease. Vitality control to assess numbers of surviving neurons was performed in all of these cases by a brief stimulation with a low dose of glutamate (10 μM). Afterwards, cells were washed three times with ice cold phosphate buffered saline (PBS), and then proteins were harvested. Suspended cells were pelleted at 500×G, and lysed into 9M urea 4% CHAPS. The cell lysate was desalted with a NAP-10 column (Amersham Biosciences), preequilibrated with the same buffer, and protein content was determined.
Functional tests by calcium imaging were performed essentially as described [Sommer et al., 2004]. Briefly, cells were loaded with 2 μM of fura-2 AM in DMEM for 45 min at 37° C. in the dark. Measurements of relative changes in [Ca^2+] were made on an inverted epifluorescence microscope (Olympus IX70 S1F2) with a Polychrom IV Monochromator (Xe-lamp, USHIO). Excitation wavelengths (λ1, λ2) and the emission wavelength were 340, 380 and 510 nm, respectively. Acquisition and analysis of data after appropriate stimulation were performed by using MetaFluor software (Universal Imaging Corporation). Image resolution was 168×129 pixels (binning 8×8, pixel size 6.8×6.8 μm). Only cells identified as neurons by morphological criteria and occasional immunostaining (not shown) and those whose calcium levels returned to the resting state after the first stimulation were taken into account. Controls included nominal zero calcium (negative) and 5 μM ionomycin (positive), 10 μM glutamate (positive) and depolarisation (55 mM K+) (positive). Pharmacological agents were applied by a multi-valve, single-output focal drug application device (ALA Scientific) with the perfusion system DAD-12. […] During each stimulation event 20 image pairs were acquired.

The test system is the same in experiment [2]. Put plainly: Excitotoxic paradigm (100 μM NMDA), neuroprotection in cell culture model. It counts as cell-based. As to the method:
as §1
(§2) Functional tests by calcium imaging were performed essentially as described [Sommer et al., 2004]. Briefly, cells were loaded with 2 μM of fura-2 AM in DMEM for 45 min at 37° C. in the dark. Measurements of relative changes in [Ca^2+] were made on an inverted epifluorescence microscope (Olympus IX70 S1F2) with a Polychrom IV Monochromator (Xe-lamp, USHIO). Excitation wavelengths (λ1, λ2) and the emission wavelength were 340, 380 and 510 nm, respectively. Acquisition and analysis of data after appropriate stimulation were performed by using MetaFluor software (Universal Imaging Corporation). Image resolution was 168×129 pixels (binning 8×8, pixel size 6.8×6.8 μm). Only cells identified as neurons by morphological criteria and occasional immunostaining (not shown) and those whose calcium levels returned to the resting state after the first stimulation were taken into account. Controls included nominal zero calcium (negative) and 5 μM ionomycin (positive), 10 μM glutamate (positive) and depolarisation (55 mM K+) (positive). […]

For experiment [3] the test system is unchanged. Put plainly: β-amyloid-induced neuronal death (10 μM Aβ1-40), rescue in cell culture model. It counts as cell-based. As to the method:
as §1, §2

Experiment [4] concerns G361 cells. Put plainly: Autophagy-related assay employing WIPI-staining. As to conditions: 0.25, 0.5, 1.0 or 2.0 μM tested; FIG. 7. Format: cell-based, human.
Experimental: The presence of autophagy is quantified by a polyclonal hWIPI-1 antiserum, which was generated by immunizing rabbits (Charles River) with two synthetic peptides representing C-terminal regions in hWIPI-1 (363nkendlrpslp373, 407lrgevipehefatgpv422) and used at a dilution of 1:5000 in ECLWestern blotting detections (Amersham), and at 1:250 for indirect immunofluorescent stainings.
For these stainings, cells were fixed in 3.7% paraformaldehyde (15 min, RT) and analysed by confocal microscopy (see below). To visualize endogenous hWIPI-1 in G361 cells consecutive incubations were conducted using C-terminal hWIPI-1 antiserum at 1:250 (30 min, RT) and Alexa 546 or Alexa 488 labelled goat anti-rabbit IgG (Molecular Probes) at 1:500 (30 min, RT) in PBS/0.1% Tween (blocking/permeabilization: PBS/0.1% Tween/1% BSA, 30 min RT; washing: PBS/0.1% Tween). For nuclear staining, TO-PRO-3 (Molecular Probes) was used at 1:1000. Finally, cells were mounted in Vectashield Mounting Medium (Vector Laboratories) and kept in the dark (41C). Confocal laser scanning microscopy was conducted using a LSM510 microscope (Zeiss) and a 63— 1.4 DIC Plan-Apochromat oil-immersion objective. GFP and Alexa 488 were excited at 488 nm with the internal argon-ion laser. Alexa 546 and TO-PRO-3, respectively, were excited at 543 and 633 nm with helium-neon lasers. […]
The subject of experiment [5] is β-amyloid plaques. Description: In vivo assay of β-amyloid plaque formation in a mouse model of Alzheimer's disease (APPPS mice). As to the method: A quite aggressive model for Alzheimer's disease is a double transgenic mouse line expressing mutated human amyloid precursor protein (APP) and presinilin-1 (PS). Between months 4 and 5 a maximal additional increase of the plaque load of 35-40% can be expected (exponential fit, FIG. 9).
Dutasteride was administered orally every day after animals became 4 months old, for 30 days at a maximum concentration of 2 mg/day.
Technically, images were recorded from whole brain sections (Olympus Fluorescence microscope AX70, Digital camera Casio QV4000; resolution 2240×1680 Pixel, with constant overall intensity in all images) A software-assisted procedure was then used to quantify overall areas of NT12 stain (anti-β-amyloid stain) (plaque area), and NT12 stain volumes in these areas by defining thresholds and relating them to overall proportions of respective slices (plaque volume).

Experiment [6] has as its system mitochondrial permeability transition pore (MPTP). Description: Functional test of the MPTP by Rhodamine-123 assay. It counts as cell-based, mouse. To be noted: for inhibition of release of Rhodamine-123 from mitochondria after opening of the MPTP: 0.5, 1, 10, 20 μM, FIG. 6. On the procedure: Ant1 is one of the essential components of the MPTP, and thus was tested functionally by a fluorescent assay described by Metzger et al. (Metzger et al. Optical assessment of motoneuron function in a “twenty-four-hour” acute spinal cord slice model from fetal rats. Journal of Neuroscience Methods 141, 2005, 309320). Briefly, cells were incubated with Rhodamine-123 ([…]) at 37° C. for 20 min. Rhodamine-123 was dissolved at 5 mg/ml in ethanol. For measurements of the membrane potential ψ, cells loaded with Rhodamine-123 were excited at 480 nm and emission was monitored at 565 nm. The lipophilic cation Rhodamine-123 accumulates in mitochondria where its fluorescence intensity is quenched at high concentrations (Chen, 1988; Scaduto and Grotyohann, 1999). A depolarizing change of ψ is indicated by an increase in the intensity of fluorescence in response to dequenching of the dye after release from mitochondria (Emaus et al., 1986; Duchen, 1992, 2000). Thus we refer to the relative change in ψ as the percentage change in Rhodamine-123 fluorescence (Schuchmann et al., 2000).

For experiment [7], the target named is T1, Kv1.5+Kvβ2.1 (Homo sapiens, UniProt Q13303).
T1 construct: expressed in transfected cells; host or cells: Xenopus oocytes
T1 sequence (Q13303 whole entry): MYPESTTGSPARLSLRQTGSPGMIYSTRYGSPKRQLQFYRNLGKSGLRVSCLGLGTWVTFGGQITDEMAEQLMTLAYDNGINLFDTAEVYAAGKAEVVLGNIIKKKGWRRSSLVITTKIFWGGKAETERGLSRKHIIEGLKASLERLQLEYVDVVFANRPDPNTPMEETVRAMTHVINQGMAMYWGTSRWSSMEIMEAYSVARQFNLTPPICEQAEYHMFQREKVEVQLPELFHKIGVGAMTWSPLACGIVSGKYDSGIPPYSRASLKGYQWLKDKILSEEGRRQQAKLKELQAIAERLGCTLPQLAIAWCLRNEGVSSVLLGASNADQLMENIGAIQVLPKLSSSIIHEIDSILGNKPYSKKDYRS
T1 sequence (P22460 whole entry partner): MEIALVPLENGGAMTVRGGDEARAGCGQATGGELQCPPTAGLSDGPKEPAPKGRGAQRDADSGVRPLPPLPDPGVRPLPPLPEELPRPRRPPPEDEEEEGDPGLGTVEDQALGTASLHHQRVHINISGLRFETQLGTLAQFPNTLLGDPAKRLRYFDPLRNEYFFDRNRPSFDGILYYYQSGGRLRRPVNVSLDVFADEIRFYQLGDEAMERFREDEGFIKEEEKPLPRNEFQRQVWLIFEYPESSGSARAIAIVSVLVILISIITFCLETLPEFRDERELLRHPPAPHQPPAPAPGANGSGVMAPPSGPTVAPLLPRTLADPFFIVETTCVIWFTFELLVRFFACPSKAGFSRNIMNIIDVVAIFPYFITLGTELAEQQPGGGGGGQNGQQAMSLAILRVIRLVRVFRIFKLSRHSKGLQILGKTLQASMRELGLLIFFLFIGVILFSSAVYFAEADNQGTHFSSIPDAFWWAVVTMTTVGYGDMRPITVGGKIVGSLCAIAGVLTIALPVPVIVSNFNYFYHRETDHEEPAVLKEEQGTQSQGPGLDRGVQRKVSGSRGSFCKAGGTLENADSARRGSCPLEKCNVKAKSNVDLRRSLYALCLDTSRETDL
Put plainly: K+ channel electrophysiology, inside-out patches of transfected Xenopus oocytes. Format: cell-based. As to conditions: 1 μM Finasteride; Xenopus oocytes with Kv1.5 and Kvβ2.1, inside-out patches, FIG. 5. On the procedure:
Xenopus oocytes were transfected with various subunit combinations of potassium channels, like Kv1.5+Kvβ2.1. Subsequently activation curves using inside-out patches (external: 2 mM K^+, internal: 96 mM K^+) were measured, they represent IV-curves using standard internal buffer solution (HK+), which were recorded in the presence and absence of 1 μM Finasteride. Corresponding plots of G/Gmax versus the membrane potential were used to evaluate related effects.

[8] abbreviates: Mus musculus, Neuron; read-out: EC50 of neuroprotective effect, excitotoxic paradigm (100 μM NMDA).
Where [9] appears, read: Mus musculus, Neuron; read-out: EC50 of neuroprotective effect, β-amyloid toxicity (10 μM Aβ 1-40).
[10] abbreviates: oral, 30 days, months 4 to 5, plaque area or plaque volume, order not stated.

Counter-ions that a name gives are not always drawn.

With `CC12CCC3C(CC[C@H]4NC(=O)CCC34C)C1CCC2C(=O)NCCN` (stereo partly drawn) [AEOAA, 4α,6α-dimethyl-2-oxo-hexadecahydro-indeno[5,4-f]quinoline-7-carboxylic-(2-amino-ethyl)-amide hydrochloride], the EC50 (usually the concentration at which the effect is half-maximal) worked out at 5000 nM in experiment [1], 5 µM in experiment [2] (setting [8]) and 4000 nM in experiment [3] (setting [9]). Further, the “neuroprotective effect compared between compounds” value in experiment [1] was “considerably less active”.

Consider `CC12CCC3C(CC[C@H]4NC(=O)CCC34C)C1CCC2C(=O)O` (stereo partly drawn) [COAAA, 4α,6α-di methyl-2-oxo-hexadecahydro-indeno[5,4-f]quinoline-7-carboxylic-acid], for which the results for the EC50 in experiment [1], in experiment [2] (setting [8]) and in experiment [3] (setting [9]) were 1000 nM, 5 µM and 2000 nM, respectively. Moreover, the “neuroprotective effect compared between compounds” value in experiment [1] is “nearly as efficacious”.

Turning to `C[C@]12C=CC(=O)N[C@@H]1CC[C@@H]1[C@@H]2CC[C@]2(C)[C@@H](C(=O)Nc3cc(C(F)(F)F)ccc3C(F)(F)F)CC[C@@H]12` [Dutasteride, 5α,17β-N-[2,5-bis(trifluoromethyl)phenyl]-3-oxo-4-azaandrost-1-ene-17-carboxamide], the “enhancement of autophagy in surviving G361 cells” value in experiment [4] is “dose-dependent effect”. In addition, the EC50 in experiment [1] amounted to 300 nM; in experiment [2] (Mus musculus, Neuron, read-out: EC50 of neuroprotective effect, excitotoxic paradigm (100 μM NMDA)), 1.5 µM; in experiment [3] (Mus musculus, Neuron, read-out: EC50 of neuroprotective effect, β-amyloid toxicity (10 μM Aβ 1-40)), 100 nM. Moreover, the “neuroprotective effect compared between compounds” value in experiment [1] was “comparable and strongest”. In addition, the “overall reduction of plaque load versus non-treated controls, first value of 'respectively'” value in experiment [5] (setting [10]) turned out to be 12%. Moreover, the “overall reduction of plaque load versus non-treated controls, second value of 'respectively'” value in experiment [5] (setting [10]) is on record as 13%. Also, in experiment [5] (oral, daily for 30 days from month 4, max 2 mg/day, cortical slices, FIG. 8), the “load of β-amyloid plaques (NT12 stain) in treated versus non-treated group” value is recorded as “significantly lower”. In experiment [5] (related to expected increase of 35-40%), the “reduction of the plaque load relative to the increase expected between months 4 and 5” value is given as 30-32.5%. For the same molecule, the “inhibition of release of Rhodamine-123 from mitochondria after opening of the MPTP” value in experiment [6] was “dose-dependent”. Further, in experiment [6] (neural derivatives of embryonic stem cells), the “inhibition of MPTP-formation and opening during ischemic conditions” value is “marked and significant inhibition”.

Consider `CC(C)(C)NC(=O)[C@H]1CC[C@H]2[C@@H]3CC[C@H]4NC(=O)C=C[C@]4(C)[C@H]3CC[C@]12C` [Finasteride, 17β-(N-tert-butylcarbamoyl)-4-aza-5α-androst-1-en-3-one], for which the “enhancement of autophagy in surviving G361 cells” value in experiment [4] is given as “dose-dependent effect”. The “protection against neuronal death induced by chemical ischemia” value in experiment [1] (100 nM-1 μM present during the ischemic insult, FIG. 2) is given as “substantial protection”. The “surviving rate of neurons after chemical ischemia” value in experiment [1] (1 μM, control cells 4.8±3.4%) turned out to be 72.1±4.4%. Moreover, the EC50 in experiment [1] was found to be 300 nM; in experiment [2] (setting [8]), 2 µM; in experiment [3] (setting [9]) it was 100 nM. In addition, the “concentration at which the neuroprotective effect peaks” value in experiment [1] (dose response, FIG. 2) is “about 1 μM”. Besides, the “neuroprotective effect compared between compounds” value in experiment [1] was “comparable and strongest”. Besides, in experiment [6], the “inhibition of release of Rhodamine-123 from mitochondria after opening of the MPTP” value was “dose-dependent”. Also, in experiment [7], the “shift of the IV-curve (G/Gmax versus membrane potential)” value is given as “small shift of the IV-curve towards more negative potential”.
